Measurements taken from patent US20250195521A1 (Revolution Medicines, Inc., priority 2020, published 2025).
Read-outs that look alike come from different tables or passages of the source.

Assays:
[1] = target: KRAS G12V (Homo sapiens (Human), UniProt P01116+P62937, G12V); assay: Ras-Raf disruption/FRET/MOA assay, KRAS G12V; type: biochemical
Description: (§1) Disruption of B-Raf Ras-Binding Domain (BRAF^RBD) Interaction with K-Ras by Compounds of the Invention (Also Called a FRET Assay or an MOA Assay)
(§2) Note—The following protocol describes a procedure for monitoring disruption of K-Ras G12C (GMP-PNP) binding to BRAF^RBD by a compound of the invention. This protocol may also be executed substituting other Ras proteins or nucleotides, such as K-Ras G12D and K-Ras G13D.
(§3) The purpose of this biochemical assay was to measure the ability of test compounds to facilitate ternary complex formation between a nucleotide-loaded K-Ras isoform and Cyclophilin A; the resulting ternary complex disrupts binding to a BRAF^RBD construct, inhibiting K-Ras signaling through a RAF effector. Data is reported as IC50 values.
(§4) In assay buffer containing 25 mM HEPES pH 7.3, 0.002% Tween20, 0.1% BSA, 100 mM NaCl and 5 mM MgCl2, tagless Cyclophilin A, His6-K-Ras-GMPPNP, and GST-BRAF^RBD were combined in a 384-well assay plate at final concentrations of 25 μM, 12.5 nM, and 50 nM, respectively. Compound was present in plate wells as a 10-point 3-fold dilution series starting at a final concentration of 30 μM. After incubation at 25° C. for 3 hours, a mixture of anti-His Eu—W1024 and anti-GST allophycocyanin was then added to assay sample wells at final concentrations of 10 nM and 50 nM, respectively, and the reaction incubated for an additional 1.5 hours. […] Compounds that facilitate disruption of a K-Ras: RAF complex were identified as those eliciting a decrease in the TR-FRET ratio relative to DMSO control wells.

[2] = target: KRAS G13D (Homo sapiens (Human), UniProt P01116+P62937, G13D); assay: Ras-Raf disruption/FRET/MOA assay, KRAS G13D; type: biochemical
Description: as §1, §2, §3, §4

[3] = target: NRAS G12C (Homo sapiens (Human), UniProt P01111+P62937, G12C); assay: Ras-Raf disruption/FRET/MOA assay, NRAS G12C; type: biochemical
Description: as §1, §2, §3, §4

[4] = target: KRAS G12S (Homo sapiens (Human), UniProt P01116+P62937, G12S); assay: Ras-Raf disruption/FRET/MOA assay, KRAS G12S; type: biochemical
Description: as §1, §2, §3, §4

[5] = target: KRAS G13C (Homo sapiens (Human), UniProt P01116+P62937, G13C); assay: Ras-Raf disruption/FRET/MOA assay, KRAS G13C; type: biochemical
Description: as §1, §2, §3, §4

[6] = target: KRAS WT (Homo sapiens (Human), UniProt P01116+P62937); assay: Ras-Raf disruption/FRET/MOA assay, KRAS WT; type: biochemical
Description: as §1, §2, §3, §4

[7] = target: KRAS G12C (Homo sapiens (Human), UniProt P01116+P62937, G12C); assay: Ras-Raf disruption/FRET/MOA assay, KRAS G12C; type: biochemical
Description: as §1, §2, §3, §4

[8] = target: KRAS G12D (Homo sapiens (Human), UniProt P01116+P62937, G12D); assay: Ras-Raf disruption/FRET/MOA assay, KRAS G12D; type: biochemical
Description: as §1, §2, §3, §4

[9] = system: AsPC-1 (K-Ras G12D); assay: Potency assay: pERK; type: cell-based, human; details: Homo sapiens, ASPC1, read-out: pERK EC50
Summary of the method: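 Cells plated overnight, then exposed 4 h at 37 °C to 10-point 3-fold dilutions of compound, in duplicate. pERK read by AlphaLISA SureFire Ultra p-ERK1/2 lysate assay or by In-Cell Western (pERK antibody, DRAQ5 DNA normalisation). IC50 from 4-parameter sigmoidal fit of signal vs log concentration.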

[10] = system: AsPC-1 (K-Ras G12D); assay: CellTiter-Glo cell viability assay, AsPC-1; type: cell-based, human; details: Homo sapiens, ASPC1, 120 h, read-out: AsPC-1 Cell Viability IC50
Summary of the method: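 Compounds dispensed directly onto seeded K-Ras mutant cells; plates read on day 5 after ~30 min equilibration to room temperature, by CellTiter-Glo luminescence. Signal normalized as (sample/mean DMSO)×100, then fitted to a four-parameter logistic curve.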

[11] = read-out: NRAS G12C FRET data IC50
[12] = read-out: KRAS G12C FRET data IC50

KRAS G12S, sequence (P01116 other isoform, or with tags, fused parts or gaps G12S): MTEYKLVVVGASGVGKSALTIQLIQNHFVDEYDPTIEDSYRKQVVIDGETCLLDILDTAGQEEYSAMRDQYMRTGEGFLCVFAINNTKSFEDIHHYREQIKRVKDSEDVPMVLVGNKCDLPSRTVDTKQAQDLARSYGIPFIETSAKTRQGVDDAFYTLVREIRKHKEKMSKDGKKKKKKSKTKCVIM
KRAS G12S, sequence (P62937 whole entry): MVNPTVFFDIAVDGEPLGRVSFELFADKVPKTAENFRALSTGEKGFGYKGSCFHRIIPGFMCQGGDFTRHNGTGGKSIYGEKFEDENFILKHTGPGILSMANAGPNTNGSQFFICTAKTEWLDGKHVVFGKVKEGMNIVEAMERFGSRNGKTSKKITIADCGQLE
KRAS G13D, sequence (P01116 other isoform, or with tags, fused parts or gaps G13D): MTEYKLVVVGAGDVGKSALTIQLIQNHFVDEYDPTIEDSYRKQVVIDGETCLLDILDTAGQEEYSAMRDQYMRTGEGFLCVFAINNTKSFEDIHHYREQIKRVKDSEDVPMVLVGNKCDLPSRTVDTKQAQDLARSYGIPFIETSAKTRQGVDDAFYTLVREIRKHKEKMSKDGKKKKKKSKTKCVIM
KRAS G13D, sequence (P62937 whole entry): as the sequence (P62937 whole entry) above
KRAS G13C, sequence (P01116 other isoform, or with tags, fused parts or gaps G13C): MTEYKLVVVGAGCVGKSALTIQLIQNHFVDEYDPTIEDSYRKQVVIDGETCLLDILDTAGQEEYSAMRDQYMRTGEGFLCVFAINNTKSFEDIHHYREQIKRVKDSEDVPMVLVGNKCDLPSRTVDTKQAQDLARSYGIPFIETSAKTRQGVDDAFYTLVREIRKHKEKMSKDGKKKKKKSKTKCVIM
KRAS G13C, sequence (P62937 whole entry): as the sequence (P62937 whole entry) above
KRAS G12V, sequence (P01116 other isoform, or with tags, fused parts or gaps G12V): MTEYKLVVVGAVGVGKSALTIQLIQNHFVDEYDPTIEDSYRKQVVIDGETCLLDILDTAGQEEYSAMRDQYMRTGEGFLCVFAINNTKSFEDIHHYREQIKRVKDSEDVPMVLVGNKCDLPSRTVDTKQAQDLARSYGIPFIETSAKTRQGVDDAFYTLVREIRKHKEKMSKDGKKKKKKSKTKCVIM
KRAS G12V, sequence (P62937 whole entry, the tested form may be a part): as the sequence (P62937 whole entry) above
KRAS G12D, sequence (P01116 other isoform, or with tags, fused parts or gaps G12D): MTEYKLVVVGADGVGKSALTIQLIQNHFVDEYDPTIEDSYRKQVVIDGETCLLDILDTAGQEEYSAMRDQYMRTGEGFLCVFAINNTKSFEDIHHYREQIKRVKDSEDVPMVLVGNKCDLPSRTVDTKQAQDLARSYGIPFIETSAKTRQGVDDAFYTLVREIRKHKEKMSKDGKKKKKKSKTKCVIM
KRAS G12D, sequence (P62937 whole entry): as the sequence (P62937 whole entry) above
NRAS G12C, sequence (P01111 whole entry G12C): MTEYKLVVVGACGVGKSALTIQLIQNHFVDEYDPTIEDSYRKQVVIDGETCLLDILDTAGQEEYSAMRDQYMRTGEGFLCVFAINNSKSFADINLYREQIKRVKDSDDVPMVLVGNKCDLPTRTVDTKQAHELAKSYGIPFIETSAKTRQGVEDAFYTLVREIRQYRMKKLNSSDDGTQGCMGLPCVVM
NRAS G12C, sequence (P62937 whole entry): as the sequence (P62937 whole entry) above
KRAS G12C, sequence (P01116-2 other isoform, or with tags, fused parts or gaps G12C): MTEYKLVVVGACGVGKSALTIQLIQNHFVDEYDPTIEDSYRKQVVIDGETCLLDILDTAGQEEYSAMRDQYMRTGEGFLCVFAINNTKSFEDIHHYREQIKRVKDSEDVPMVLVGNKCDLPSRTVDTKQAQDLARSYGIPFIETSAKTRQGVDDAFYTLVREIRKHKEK
KRAS G12C, sequence (P62937 whole entry): as the sequence (P62937 whole entry) above
KRAS WT, sequence (P01116 other isoform, or with tags, fused parts or gaps): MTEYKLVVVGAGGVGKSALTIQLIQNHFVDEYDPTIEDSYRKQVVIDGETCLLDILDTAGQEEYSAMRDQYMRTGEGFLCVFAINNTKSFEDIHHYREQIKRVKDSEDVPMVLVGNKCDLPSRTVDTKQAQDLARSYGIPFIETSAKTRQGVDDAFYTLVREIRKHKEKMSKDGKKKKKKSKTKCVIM
KRAS WT, sequence (P62937 whole entry): as the sequence (P62937 whole entry) above

| Structure (SMILES) | IC50 ([1]; read-out: KRAS G12V FRET IC50) | IC50 ([2]; read-out: KRAS G13D FRET IC50) | IC50 [3, 11] | IC50 ([4]; read-out: KRAS G12S FRET IC50) | IC50 ([5]; read-out: KRAS G13C FRET IC50) | IC50 ([6]; read-out: KRAS WT FRET IC50) | IC50 [7, 12] | IC50 ([8]; read-out: KRAS G12D FRET IC50) | IC50 [1] | IC50 [2] | IC50 [3] | IC50 [4] | IC50 [5] | EC50 [9] | IC50 [6] | IC50 [7] | IC50 [8] | IC50 [10] | IC50 ([10]; K-Ras G12D, 5-day treatment) |
| --- | --- | --- | --- | --- | --- | --- | --- | --- | --- | --- | --- | --- | --- | --- | --- | --- | --- | --- | --- |
| CCn1c(-c2cnccc2COC)c2c3cc(ccc31)-c1cccc(c1)C[C@H](NC(=O)[C@H](C(C)C)N1CC[C@@H](CN=C=NCCOC)C1)C(=O)N1CCC[C@H](N1)C(=O)OCC(C)(C)C2 [Example 80] | 1000 to 10000 nM | > 10000 nM | 100 to 1000 nM | 1000 to 10000 nM | 1000 to 10000 nM | 1000 to 10000 nM | 100 to 1000 nM | 1000 to 10000 nM | – | – | – | – | – | – | – | – | – | – | – |
| CCn1c(-c2cnccc2COC)c2c3cc(ccc31)-c1cccc(c1)C[C@H](NC(=O)[C@H](C(C)C)N1CC[C@H](CN=C=Nc3ccc(OC)cc3)C1)C(=O)N1CCC[C@H](N1)C(=O)OCC(C)(C)C2 [Example 81] | 1000 to 10000 nM | > 10000 nM | 1000 to 10000 nM | > 10000 nM | > 10000 nM | > 10000 nM | 100 to 1000 nM | > 10000 nM | – | – | – | – | – | – | – | – | – | – | – |
| CCn1c(-c2cnccc2COC)c2c3cc(ccc31)-c1cc(O)cc(c1)C[C@H](NC(=O)[C@H](C(C)C)N(C)C(=O)CN(C)C(=O)[C@H]1N[C@H]1c1ccc(OC)cc1)C(=O)N1CCC[C@H](N1)C(=O)OCC(C)(C)C2 [Example 93] | – | – | – | – | – | – | – | – | 10 to 100 nM | 100 to 1000 nM | 10 to 100 nM | 10 to 100 nM | 10 to 100 nM | < 5 µM | 10 to 100 nM | 10 to 100 nM | 100 to 1000 nM | > 10 µM | – |
| CCn1c(-c2cnccc2COC)c2c3cc(ccc31)-c1cc(O)cc(c1)C[C@H](NC(=O)[C@H](C(C)C)N(C)C(=O)CN1C(=O)[C@H]3N[C@H]3C1=O)C(=O)N1CCC[C@H](N1)C(=O)OCC(C)(C)C2 [Example 98] | 1000 to 10000 nM | 1000 to 10000 nM | 1000 to 10000 nM | 1000 to 10000 nM | 100 to 1000 nM | 100 to 1000 nM | 100 to 1000 nM | 1000 to 10000 nM | – | – | – | – | – | – | – | – | – | – | – |
| CCn1c(-c2cnccc2COC)c2c3cc(ccc31)-c1cc(O)cc(c1)C[C@H](NC(=O)[C@@H](CN(C)C(=O)[C@H]1CN1)C(C)C)C(=O)N1CCC[C@H](N1)C(=O)OCC(C)(C)C2 [Example 99] | 1000 to 10000 nM | > 10000 nM | > 10000 nM | > 10000 nM | > 10000 nM | > 10000 nM | 1000 to 10000 nM | > 10000 nM | – | – | – | – | – | – | – | – | – | – | – |
| CCn1c(-c2cccnc2[C@H](C)OC)c2c3cc(ccc31)-c1cc(O)cc(c1)C[C@H](NC(=O)[C@H](C(C)C)N1CCC3(CC(C(=O)[C@H]4CN4)C3)C1=O)C(=O)N1CCC[C@H](N1)C(=O)OCC(C)(C)C2 (stereo partly shown) [Example 115] | 100 to 1000 nM | 10 to 100 nM | < 10 nM | 100 to 1000 nM | 10 to 100 nM | 10 to 100 nM | < 10 nM | 100 to 1000 nM | – | – | – | – | – | – | – | – | – | – | > 10 µM |
| CCn1c(-c2cnccc2COC)c2c3cc(ccc31)-c1cc(O)cc(c1)C[C@H](NC(=O)[C@H](C(C)C)N(C)C(=O)CCNC1=NCCO1)C(=O)N1CCC[C@H](N1)C(=O)OCC(C)(C)C2 [Example 120] | 100 to 1000 nM | 10 to 100 nM | 100 to 1000 nM | 100 to 1000 nM | 10 to 100 nM | 10 to 100 nM | 100 to 1000 nM | 100 to 1000 nM | – | – | – | – | – | – | – | – | – | – | – |
| CCn1c(-c2cccnc2[C@H](C)OC)c2c3cc(ccc31)-c1cccc(c1)C[C@H](NC(=O)[C@H](C(C)C)N1CC[C@@H](CN=C=NCCOC)C1)C(=O)N1CCC[C@H](N1)C(=O)OCC(C)(C)C2 [Example 121] | 1000 to 10000 nM | > 10000 nM | 100 to 1000 nM | 1000 to 10000 nM | 100 to 1000 nM | 100 to 1000 nM | 100 to 1000 nM | 1000 to 10000 nM | – | – | – | – | – | – | – | – | – | – | – |
